{"source": "ChEMBL document CHEMBL5260838", "about": "(J Med Chem, 2019)", "key": {"[1]": {"assay": "Kinetic solubility of compound", "format": "physicochemical", "conditions": "read-out: Kinetic_solubility"}, "[2]": {"assay": "Half-life in Beagle dog at 1 mg/kg, po", "format": "ADME, organism-based, Canis lupus familiaris", "conditions": "in vivo"}, "[3]": {"assay": "Unbound plasma concentration in FVB mouse model of aconitine-induced pain expressing human Nav1.7 I848T mutant at 0.3 mg/kg, po administered 120 mins prior to aconitine administration and measured after 70 mins by UPLC-ESI MS/MS analysis", "format": "ADME, organism-based", "conditions": "in vivo, 3.167 h, time 190 min"}, "[4]": {"assay": "Clearance in Beagle dog at 0.5 mg/kg, iv", "format": "ADME, organism-based, Canis lupus familiaris", "conditions": "in vivo"}, "[5]": {"target": "T1, Sodium channel protein type 9 subunit alpha (Homo sapiens, UniProt Q15858)", "T1 sequence (Q15858 whole entry)": "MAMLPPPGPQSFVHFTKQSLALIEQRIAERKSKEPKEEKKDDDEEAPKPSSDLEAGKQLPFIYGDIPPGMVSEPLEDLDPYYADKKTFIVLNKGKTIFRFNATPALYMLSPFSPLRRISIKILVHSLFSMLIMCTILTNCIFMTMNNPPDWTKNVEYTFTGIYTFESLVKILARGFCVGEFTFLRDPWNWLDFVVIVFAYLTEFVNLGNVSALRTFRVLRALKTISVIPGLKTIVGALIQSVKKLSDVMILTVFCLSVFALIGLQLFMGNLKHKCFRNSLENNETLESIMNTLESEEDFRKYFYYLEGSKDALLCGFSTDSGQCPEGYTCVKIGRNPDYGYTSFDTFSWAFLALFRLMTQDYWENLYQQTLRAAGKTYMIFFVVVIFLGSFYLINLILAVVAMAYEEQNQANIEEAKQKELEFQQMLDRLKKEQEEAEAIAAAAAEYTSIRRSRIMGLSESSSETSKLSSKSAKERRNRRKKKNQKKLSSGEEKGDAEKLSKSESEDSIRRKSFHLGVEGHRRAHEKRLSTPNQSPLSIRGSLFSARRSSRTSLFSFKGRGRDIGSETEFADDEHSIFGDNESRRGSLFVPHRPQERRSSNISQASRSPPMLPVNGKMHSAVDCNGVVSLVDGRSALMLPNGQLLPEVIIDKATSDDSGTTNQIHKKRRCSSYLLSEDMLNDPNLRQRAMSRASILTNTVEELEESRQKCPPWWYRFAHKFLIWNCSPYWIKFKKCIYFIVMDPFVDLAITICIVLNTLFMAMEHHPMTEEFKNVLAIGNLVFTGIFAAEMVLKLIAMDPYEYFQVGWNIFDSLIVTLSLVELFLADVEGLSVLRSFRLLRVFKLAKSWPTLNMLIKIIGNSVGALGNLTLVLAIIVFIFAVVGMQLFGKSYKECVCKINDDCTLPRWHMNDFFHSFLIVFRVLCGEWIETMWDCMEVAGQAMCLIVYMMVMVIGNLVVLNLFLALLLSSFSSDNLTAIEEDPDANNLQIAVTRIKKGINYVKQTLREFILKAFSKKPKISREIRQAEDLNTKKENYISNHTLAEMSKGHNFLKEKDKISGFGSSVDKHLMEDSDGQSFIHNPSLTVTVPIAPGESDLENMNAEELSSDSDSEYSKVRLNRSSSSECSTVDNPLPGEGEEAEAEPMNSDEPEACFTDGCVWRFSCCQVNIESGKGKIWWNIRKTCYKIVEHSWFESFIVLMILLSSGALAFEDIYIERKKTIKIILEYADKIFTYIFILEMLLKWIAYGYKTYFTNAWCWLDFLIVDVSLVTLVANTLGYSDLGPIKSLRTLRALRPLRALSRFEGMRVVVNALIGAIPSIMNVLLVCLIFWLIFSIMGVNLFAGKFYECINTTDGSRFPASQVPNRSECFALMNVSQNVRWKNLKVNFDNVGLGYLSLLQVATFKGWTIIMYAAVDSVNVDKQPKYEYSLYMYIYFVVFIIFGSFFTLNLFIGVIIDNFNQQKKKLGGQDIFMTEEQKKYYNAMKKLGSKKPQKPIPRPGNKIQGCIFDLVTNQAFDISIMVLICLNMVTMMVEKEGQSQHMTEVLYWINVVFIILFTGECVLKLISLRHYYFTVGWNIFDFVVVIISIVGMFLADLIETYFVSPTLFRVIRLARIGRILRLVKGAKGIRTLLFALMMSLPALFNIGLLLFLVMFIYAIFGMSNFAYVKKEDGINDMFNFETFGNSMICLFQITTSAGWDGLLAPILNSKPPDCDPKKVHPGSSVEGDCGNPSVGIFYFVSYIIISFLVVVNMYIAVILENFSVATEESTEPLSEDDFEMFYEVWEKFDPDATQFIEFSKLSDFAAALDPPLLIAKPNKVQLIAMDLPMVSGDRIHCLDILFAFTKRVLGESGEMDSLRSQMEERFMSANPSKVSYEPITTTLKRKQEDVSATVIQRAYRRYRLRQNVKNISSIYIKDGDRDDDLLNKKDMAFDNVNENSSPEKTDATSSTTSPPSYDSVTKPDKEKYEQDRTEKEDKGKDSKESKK", "assay": "Displacement of [3H]GX-545 from human Nav1.7 alpha subunit expressed in HEK293 cells co-expressing beta1 subunit by liquid scintillation counting analysis", "format": "cell-based"}, "Mus musculus [6]": {"test_system": "Mus musculus", "assay": "Antinociceptive activity against aconitine-induced pain in FVB mouse model expressing human Nav 1.7 I848T mutant assessed as reduction in nociceptive behavior at 0.1 mg/kg, po administered 120 mins prior to aconitine administration and measured after 70 mins relative to control", "format": "functional", "design": "scale not given: the % may be the effect or the level left", "conditions": "time 190 min, 3.167 h"}, "Mus musculus [7]": {"test_system": "Mus musculus", "assay": "Antinociceptive activity against aconitine-induced pain in FVB mouse model expressing human Nav 1.7 I848T mutant assessed as reduction in nociceptive behavior at 10 mg/kg, po administered 120 mins prior to aconitine administration and measured after 70 mins relative to control", "format": "functional", "design": "scale not given: the % may be the effect or the level left", "conditions": "time 190 min, 3.167 h"}, "[8]": {"target": "Sodium channel protein type 8 subunit alpha (Homo sapiens, UniProt Q9UQD0)", "sequence (Q9UQD0 whole entry)": "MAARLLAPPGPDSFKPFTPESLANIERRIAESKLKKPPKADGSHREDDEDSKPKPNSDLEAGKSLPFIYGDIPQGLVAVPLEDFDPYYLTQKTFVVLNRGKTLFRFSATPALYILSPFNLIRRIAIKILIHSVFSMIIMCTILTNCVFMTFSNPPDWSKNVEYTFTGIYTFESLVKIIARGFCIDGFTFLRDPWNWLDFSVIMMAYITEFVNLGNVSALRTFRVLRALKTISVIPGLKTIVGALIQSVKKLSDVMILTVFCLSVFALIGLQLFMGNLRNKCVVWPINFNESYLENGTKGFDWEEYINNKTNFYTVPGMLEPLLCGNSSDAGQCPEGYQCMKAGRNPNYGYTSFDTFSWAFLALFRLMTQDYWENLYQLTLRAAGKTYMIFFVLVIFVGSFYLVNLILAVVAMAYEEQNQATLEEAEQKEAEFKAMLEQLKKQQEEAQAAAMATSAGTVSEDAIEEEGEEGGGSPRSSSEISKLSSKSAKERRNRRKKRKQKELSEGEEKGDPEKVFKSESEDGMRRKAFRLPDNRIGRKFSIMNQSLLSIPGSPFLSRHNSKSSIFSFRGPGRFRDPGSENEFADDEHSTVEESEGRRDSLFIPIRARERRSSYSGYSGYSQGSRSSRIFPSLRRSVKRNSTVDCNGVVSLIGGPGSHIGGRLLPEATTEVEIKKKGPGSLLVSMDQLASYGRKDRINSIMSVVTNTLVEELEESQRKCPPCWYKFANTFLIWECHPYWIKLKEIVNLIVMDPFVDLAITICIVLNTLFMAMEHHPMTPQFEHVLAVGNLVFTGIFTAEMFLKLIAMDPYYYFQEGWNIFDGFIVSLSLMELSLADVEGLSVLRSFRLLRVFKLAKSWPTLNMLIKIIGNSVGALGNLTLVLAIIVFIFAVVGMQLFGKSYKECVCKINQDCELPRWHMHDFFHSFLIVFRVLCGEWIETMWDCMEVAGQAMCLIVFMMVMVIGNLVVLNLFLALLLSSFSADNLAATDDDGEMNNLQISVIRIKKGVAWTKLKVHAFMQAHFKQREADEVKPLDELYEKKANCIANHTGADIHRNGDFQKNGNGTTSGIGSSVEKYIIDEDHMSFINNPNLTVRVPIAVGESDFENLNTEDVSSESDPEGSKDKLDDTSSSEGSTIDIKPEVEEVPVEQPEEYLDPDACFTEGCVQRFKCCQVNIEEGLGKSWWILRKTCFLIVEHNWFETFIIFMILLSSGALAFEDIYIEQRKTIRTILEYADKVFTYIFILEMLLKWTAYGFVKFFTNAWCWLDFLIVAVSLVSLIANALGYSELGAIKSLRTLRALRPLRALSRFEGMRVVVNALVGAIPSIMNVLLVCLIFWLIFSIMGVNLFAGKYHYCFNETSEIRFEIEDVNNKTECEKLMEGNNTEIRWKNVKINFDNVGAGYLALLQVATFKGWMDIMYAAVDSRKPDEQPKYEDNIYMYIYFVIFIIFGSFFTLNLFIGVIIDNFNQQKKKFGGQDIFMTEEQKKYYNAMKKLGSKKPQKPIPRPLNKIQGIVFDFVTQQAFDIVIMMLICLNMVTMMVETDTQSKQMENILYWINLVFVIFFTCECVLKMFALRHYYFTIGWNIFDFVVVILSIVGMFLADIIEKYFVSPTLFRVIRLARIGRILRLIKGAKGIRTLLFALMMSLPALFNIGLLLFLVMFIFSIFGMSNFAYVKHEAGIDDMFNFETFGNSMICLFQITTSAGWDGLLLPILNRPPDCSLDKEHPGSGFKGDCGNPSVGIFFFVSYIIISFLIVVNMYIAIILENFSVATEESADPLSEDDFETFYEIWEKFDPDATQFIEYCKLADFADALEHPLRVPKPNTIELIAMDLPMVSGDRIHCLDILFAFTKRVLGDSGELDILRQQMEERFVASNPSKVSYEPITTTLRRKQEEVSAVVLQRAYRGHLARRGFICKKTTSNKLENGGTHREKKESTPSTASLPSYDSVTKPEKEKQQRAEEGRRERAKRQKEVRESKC", "assay": "Inhibition of human Nav1.6 alpha subunit expressed in HEK293 cells co-expressing beta1 subunit at -35 mV holding potential by PatchXpress automated voltage clamp electrophysiology technique", "format": "cell-based"}, "[9]": {"assay": "AUC in Sprague-Dawley rat at 5 mg/kg, po", "format": "ADME, organism-based", "design": "dose 5 mg/kg, route po", "conditions": "in vivo"}, "[10]": {"assay": "Drug concentration in plasma of FVB mouse model of aconitine-induced pain expressing human Nav1.7 I848T mutant at 3 mg/kg, po administered 120 mins prior to aconitine administered and measured after 70 mins by UPLC-ESI MS/MS analysis", "format": "ADME, organism-based", "conditions": "time 190 min"}, "[11]": {"target": "T1, Sodium channel protein type 9 subunit alpha", "assay": "Inhibition of human Nav1.7 alpha subunit expressed in HEK293 cells co-expressing beta1 subunit at -60 mV holding potential by whole-cell patch voltage clamp electrophysiology recording", "format": "cell-based"}, "[12]": {"assay": "Drug concentration in brain of FVB mouse model of aconitine-induced pain expressing human Nav1.7 I848T mutant at 10 mg/kg, po administered 120 mins prior to aconitine administered and measured after 70 mins by UPLC-ESI MS/MS analysis", "format": "ADME, organism-based", "conditions": "time 190 min, read-out: Ct"}, "[13]": {"assay": "Oral bioavailability in Beagle dog at 1 mg/kg", "format": "ADME, organism-based, Canis lupus familiaris", "conditions": "in vivo"}, "[14]": {"assay": "Half-life in FVB mouse at 1 mg/kg, iv", "format": "ADME, organism-based", "conditions": "in vivo, iv, 1 mg/kg"}, "[15]": {"assay": "Cmax in Beagle dog at 1 mg/kg, po", "format": "ADME, organism-based, Canis lupus familiaris", "design": "dose 1 mg/kg, route po", "conditions": "in vivo"}, "Cytochrome P450 2C19": {"target": "Cytochrome P450 2C19 (Homo sapiens, UniProt P33261)", "sequence (P33261 whole entry)": "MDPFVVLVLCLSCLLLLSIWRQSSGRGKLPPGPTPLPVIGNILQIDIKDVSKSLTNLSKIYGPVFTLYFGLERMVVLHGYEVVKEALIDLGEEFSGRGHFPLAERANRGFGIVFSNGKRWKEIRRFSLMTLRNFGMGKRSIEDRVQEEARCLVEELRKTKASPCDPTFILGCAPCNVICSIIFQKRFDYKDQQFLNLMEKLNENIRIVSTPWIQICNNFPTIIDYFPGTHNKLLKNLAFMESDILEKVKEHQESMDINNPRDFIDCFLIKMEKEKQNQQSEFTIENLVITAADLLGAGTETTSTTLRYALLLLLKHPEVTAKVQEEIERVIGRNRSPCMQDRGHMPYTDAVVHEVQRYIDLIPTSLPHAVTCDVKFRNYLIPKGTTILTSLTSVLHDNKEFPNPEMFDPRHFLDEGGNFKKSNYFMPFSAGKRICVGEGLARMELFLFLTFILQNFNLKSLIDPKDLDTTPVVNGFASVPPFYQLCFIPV", "assay": "Inhibition of CYP2C19 (unknown origin)", "format": "ADME"}, "[16]": {"assay": "Half-life in FVB mouse at 30 mg/kg, po", "format": "ADME, organism-based", "conditions": "in vivo"}, "[17]": {"target": "Sodium channel protein type 10 subunit alpha (Mus musculus) (UniProt Q6QIY3)", "assay": "Inhibition of TTX-resistant Nav1.8 in mouse dorsal root ganglion neuron at 10 uM by voltage clamp recording relative to control", "format": "tissue-based", "conditions": "DRG neuron"}, "[18]": {"assay": "AUC in FVB mouse at 30 mg/kg, po", "format": "ADME, organism-based", "design": "dose 30 mg/kg, route po", "conditions": "in vivo"}, "Mus musculus [19]": {"test_system": "Mus musculus", "assay": "Analgesic activity against formalin-induced pain in FVB mouse model assessed as reduction in formalin-induced pain at 10 mg/kg, po administered for 120 mins prior to formalin challenge and measured after 11 to 40 mins", "format": "functional, organism-based", "conditions": "time 131-160 min"}, "[20]": {"assay": "Oral bioavailability in FVB mouse at 30 mg/kg", "format": "ADME, organism-based", "conditions": "in vivo"}, "[21]": {"assay": "Volume of distribution at steady state in Beagle dog at 0.5 mg/kg, iv", "format": "ADME, organism-based, Canis lupus familiaris", "conditions": "in vivo, read-out: Vdss"}, "[22]": {"target": "Sodium channel protein type 2 subunit alpha (Homo sapiens, UniProt Q99250)", "assay": "Inhibition of human Nav1.2 alpha subunit expressed in HEK293 cells co-expressing beta1 subunit at -35 mV holding potential by PatchXpress automated voltage clamp electrophysiology technique", "format": "cell-based"}, "MDR1": {"test_system": "MDR1", "assay": "Efflux ratio of apparent permeability across basolateral to apical side over apical to basolateral side in MDCK1 cells expressing MDR1", "format": "ADME, cell-based, Canis lupus familiaris", "conditions": "dog, MDCK-MDR1"}, "[23]": {"assay": "Drug concentration in brain of FVB mouse model of aconitine-induced pain expressing human Nav1.7 I848T mutant at 3 mg/kg, po administered 120 mins prior to aconitine administered and measured after 70 mins by UPLC-ESI MS/MS analysis", "format": "ADME, organism-based", "conditions": "time 190 min, read-out: Ct"}, "[24]": {"assay": "Protein binding in rat plasma", "format": "ADME, cell-free", "conditions": "read-out: PPB (converted)"}, "[25]": {"assay": "Clearance in Sprague-Dawley rat at 1 mg/kg, iv", "format": "ADME, organism-based", "conditions": "in vivo"}, "[26]": {"assay": "Apparent permeability from apical to basolateral side in MDCK1 cells", "format": "ADME, cell-based, Canis lupus familiaris", "conditions": "dog, MDCK"}, "[27]": {"target": "Sodium channel protein type 1 subunit alpha (Homo sapiens, UniProt P35498)", "assay": "Inhibition of human Nav1.1 alpha subunit expressed in HEK293 cells co-expressing beta1 subunit at -40 mV holding potential by PatchXpress automated voltage clamp electrophysiology technique", "format": "cell-based"}, "Mus musculus [28]": {"test_system": "Mus musculus", "assay": "Antinociceptive activity against aconitine-induced pain in FVB mouse model expressing human Nav 1.7 I848T mutant assessed as reduction in nociceptive behavior at 3 mg/kg, po administered 120 mins prior to aconitine administration and measured after 70 mins relative to control", "format": "functional", "design": "scale not given: the % may be the effect or the level left", "conditions": "time 190 min, 3.167 h"}, "[29]": {"assay": "Brain to plasma ratio in FVB mouse model of aconitine-induced pain expressing human Nav1.7 I848T mutant administered orally 120 mins prior to aconitine administered and measured after 70 mins by UPLC-ESI MS/MS analysis", "format": "ADME", "conditions": "route po, time 190 min, read-out: BPR"}, "[30]": {"target": "Sodium channel protein type 10 subunit alpha (Mus musculus, UniProt Q6QIY3)", "assay": "Inhibition of TTX-resistant Nav1.8 in mouse dorsal root ganglion neuron by voltage clamp recording", "format": "tissue-based, DRG neuron"}, "[31]": {"target": "T2, Peroxisome proliferator-activated receptor gamma (Homo sapiens) (UniProt P37231)", "T2 sequence (whole entry)": "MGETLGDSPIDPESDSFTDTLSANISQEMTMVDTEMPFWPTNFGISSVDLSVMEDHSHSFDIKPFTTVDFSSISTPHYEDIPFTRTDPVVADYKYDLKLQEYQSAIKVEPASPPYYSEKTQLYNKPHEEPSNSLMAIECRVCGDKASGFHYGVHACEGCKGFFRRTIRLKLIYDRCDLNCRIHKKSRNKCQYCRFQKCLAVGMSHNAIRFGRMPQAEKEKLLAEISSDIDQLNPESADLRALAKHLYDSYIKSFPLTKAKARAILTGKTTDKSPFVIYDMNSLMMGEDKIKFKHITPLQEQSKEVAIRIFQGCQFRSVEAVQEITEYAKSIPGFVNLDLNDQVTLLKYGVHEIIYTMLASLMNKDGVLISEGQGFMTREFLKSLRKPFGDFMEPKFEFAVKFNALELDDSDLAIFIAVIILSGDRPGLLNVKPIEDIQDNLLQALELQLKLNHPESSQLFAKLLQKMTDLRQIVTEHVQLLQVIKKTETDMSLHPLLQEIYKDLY", "assay": "Inhibition of PPARgamma (unknown origin) at 10 uM relative to control"}}, "note": "pIC50: −log10 of the molar value. The source made the active and inactive calls. The rule behind the calls is not given here."}
{"smiles": "CC1(COc2cc(F)c(C(=O)NS(=O)(=O)C3CC3)cc2C2CC2)CCC2(CC1)CC2", "values": [{"measurement": "solubility kinetic", "setting": "[1]", "value": 10, "unit": "µM"}, {"measurement": "half-life", "setting": "[2]", "value": 360, "unit": "min"}, {"measurement": "Cp(f)", "setting": "[3]", "value": 3, "unit": "nM"}, {"measurement": "clearance", "setting": "[4]", "value": 0.3, "unit": "mL/min/kg"}, {"measurement": "pIC50", "setting": "[5]", "value": 7.82}, {"measurement": "Activity", "setting": "Mus musculus [6]", "value": 10, "unit": "%"}, {"measurement": "Activity", "setting": "Mus musculus [7]", "value": 99.5, "unit": "%"}, {"measurement": "pIC50", "setting": "[8]", "value": 7.42}, {"measurement": "AUC", "setting": "[9]", "value": 78, "unit": "µM·h"}, {"measurement": "concentration at 3.167 h", "setting": "[10]", "value": 25, "unit": "µM"}, {"measurement": "pIC50", "setting": "[11]", "value": 9.22}, {"measurement": "concentration at 3.167 h", "setting": "[12]", "value": 6.2, "unit": "µM"}, {"measurement": "bioavailability", "setting": "[13]", "value": 68, "unit": "%"}, {"measurement": "t1/2", "setting": "[14]", "value": 1.5, "unit": "h"}, {"measurement": "Cmax", "setting": "[15]", "value": 9, "unit": "µM"}, {"measurement": "pIC50", "setting": "Cytochrome P450 2C19", "value": "< 5.00"}, {"measurement": "half-life", "setting": "[16]", "value": 552, "unit": "min"}, {"measurement": "inhibition", "setting": "[17]", "value": 38, "unit": "%"}, {"measurement": "AUC", "setting": "[18]", "value": 113, "unit": "µM·h"}, {"measurement": "Activity", "setting": "Mus musculus [19]", "value": "Active"}, {"measurement": "bioavailability", "setting": "[20]", "value": 31, "unit": "%"}, {"measurement": "Vd", "setting": "[21]", "value": 0.14, "unit": "L/kg"}, {"measurement": "pIC50", "setting": "[22]", "value": 8.70}, {"measurement": "efflux ratio", "setting": "MDR1", "value": 1.2}, {"measurement": "concentration at 3.167 h", "setting": "[23]", "value": 1900, "unit": "nM"}, {"measurement": "fraction unbound", "setting": "[24]", "value": 0.001}, {"measurement": "clearance", "setting": "[25]", "value": 1.2, "unit": "mL/min/kg"}, {"measurement": "Papp A→B", "setting": "[26]", "value": 9, "unit": "×10⁻⁶ cm/s"}, {"measurement": "pIC50", "setting": "[27]", "value": 8.22}, {"measurement": "Activity", "setting": "Mus musculus [28]", "value": 98, "unit": "%"}, {"measurement": "Kp at 3.167 h", "setting": "[29]", "value": 0.08}, {"measurement": "pIC50", "setting": "[30]", "value": "< 5.00"}, {"measurement": "inhibition", "setting": "[31]", "value": 91, "unit": "%"}]}
